Read-outs that look alike come from different tables or passages of the source.
Assays:
[1] = test system: Key Broadleaf Weed and Crop Species; assay: Post-emergent Test II herbicidal activity (Table 5); format: in vivo; settings: post-emergence, 336 h, 14 days after application; for pest or weed control at 70 g/ha: application rate 70 g ai/ha; for pest or weed control at 140 g/ha: application rate 140 g ai/ha
Method in brief: (§1)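 Plants grown in Metro-Mix 360 (pH 6.0–6.8) in a greenhouse (~15 h photoperiod, 23–29 °C day) to first or second true leaf stage, then sprayed with compound in acetone/DMSO/aqueous crop-oil-surfactant carrier at 187 L/ha by track sprayer. Injury visually scored 0–100% versus untreated plants after 14 d.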

[2] = test system: Key Grass and Sedge Weeds as well as Grass Crops; assay: Post-emergent Test II herbicidal activity (Table 6); format: in vivo; settings: post-emergence, 336 h
Method in brief: as §1

[3] = ABUTH: velvetleaf (Abutilon theophrasti), read-out: Visual Growth Reduction (%) 14 Days After Application, ABUTH
[4] = AMARE: redroot pigweed (Amaranthus retroflexus), read-out: Visual Growth Reduction (%) 14 Days After Application, AMARE
[5] = BRSNN: oilseed-rape, canola (Brassica napus), read-out: Visual Growth Reduction (%) 14 Days After Application, BRSNN
[6] = CHEAL: lambsquarters (Chenopodium album), read-out: Visual Growth Reduction (%) 14 Days After Application, CHEAL
[7] = EPHHL: wild poinsettia (Euphorbia heterophylla), read-out: Visual Growth Reduction (%) 14 Days After Application, EPHHL
[8] = HELAN: sunflower (Helianthus annuus), read-out: Visual Growth Reduction (%) 14 Days After Application, HELAN
[9] = VIOTR: wild pansy (Viola tricolor), read-out: Visual Growth Reduction (%) 14 Days After Application, VIOTR

Work on Nc1c(F)c(-c2ccc(OC(F)F)c(F)c2F)nc(C(=O)O)c1Cl [Compound 19] yielded a melting point of 113 to 115 °C, a pest or weed control at 70 g/ha [1, 3] of 0 to 29% and a pest or weed control at 140 g/ha [1, 3] of 0 to 29%. It also gave a pest or weed control at 70 g/ha [1, 4] of 0 to 29%, a pest or weed control at 140 g/ha [1, 4] of 0 to 29% and a pest or weed control at 70 g/ha [1, 5] of 0 to 29%. The pest or weed control at 140 g/ha [1, 5] was 60 to 74%, the pest or weed control at 70 g/ha [1, 6] was 0 to 29% and the pest or weed control at 140 g/ha [1, 6] was 0 to 29%. The pest or weed control at 70 g/ha [1, 7] was 0 to 29%, the pest or weed control at 140 g/ha [1, 7] was 30 to 44% and the pest or weed control at 70 g/ha [1, 8] was 75 to 84%. For the same molecule, the pest or weed control at 140 g/ha [1, 8] was 75 to 84%, the pest or weed control at 70 g/ha [1, 9] was 0 to 29% and the pest or weed control at 140 g/ha [1, 9] was 0 to 29%. The pest or weed control at 70 g/ha ([2]; Triticum aestivum, TRZSS (wheat), application rate 70 g ai/ha, read-out: Visual Growth Reduction (%) 14 Days After Application, TRZSS) was 0 to 29%, the pest or weed control at 140 g/ha ([2]; Triticum aestivum, TRZSS (wheat), application rate 140 g ai/ha, read-out: Visual Growth Reduction (%) 14 Days After Application, TRZSS) was 0 to 29% and the pest or weed control at 70 g/ha ([2]; CYPES: yellow nutsedge (Cyperus esculentus), application rate 70 g ai/ha, read-out: Visual Growth Reduction (%) 14 Days After Application, CYPES) was 0 to 29%. The pest or weed control at 140 g/ha ([2]; CYPES: yellow nutsedge (Cyperus esculentus), application rate 140 g ai/ha, read-out: Visual Growth Reduction (%) 14 Days After Application, CYPES) was 0 to 29%, the pest or weed control at 70 g/ha ([2]; DIGSA: crabgrass (Digitaria sanguinalis), application rate 70 g ai/ha, read-out: Visual Growth Reduction (%) 14 Days After Application, DIGSA) was 0 to 29% and the pest or weed control at 140 g/ha ([2]; DIGSA: crabgrass (Digitaria sanguinalis), application rate 140 g ai/ha, read-out: Visual Growth Reduction (%) 14 Days After Application, DIGSA) was 0 to 29%. For the same molecule, the pest or weed control at 70 g/ha ([2]; ECHCG: barnyardgrass (Echinochloa crus-galli), application rate 70 g ai/ha, read-out: Visual Growth Reduction (%) 14 Days After Application, ECHCG) was 0 to 29%, the pest or weed control at 140 g/ha ([2]; ECHCG: barnyardgrass (Echinochloa crus-galli), application rate 140 g ai/ha, read-out: Visual Growth Reduction (%) 14 Days After Application, ECHCG) was 0 to 29% and the pest or weed control at 70 g/ha ([2]; ORYSA: rice (Oryza sativa), application rate 70 g ai/ha, read-out: Visual Growth Reduction (%) 14 Days After Application, ORYSA) was 0 to 29%. It also gave a pest or weed control at 140 g/ha ([2]; ORYSA: rice (Oryza sativa), application rate 140 g ai/ha, read-out: Visual Growth Reduction (%) 14 Days After Application, ORYSA) of 0 to 29%, a pest or weed control at 70 g/ha ([2]; SETFA: giant foxtail (Setaria faberi), application rate 70 g ai/ha, read-out: Visual Growth Reduction (%) 14 Days After Application, SETFA) of 0 to 29% and a pest or weed control at 140 g/ha ([2]; SETFA: giant foxtail (Setaria faberi), application rate 140 g ai/ha, read-out: Visual Growth Reduction (%) 14 Days After Application, SETFA) of 0 to 29%. It also gave a pest or weed control at 70 g/ha ([2]; SORVU: grain sorghum (Sorghum vulgare), application rate 70 g ai/ha, read-out: Visual Growth Reduction (%) 14 Days After Application, SORVU) of 0 to 29%, a pest or weed control at 140 g/ha ([2]; SORVU: grain sorghum (Sorghum vulgare), application rate 140 g ai/ha, read-out: Visual Growth Reduction (%) 14 Days After Application, SORVU) of 0 to 29% and a pest or weed control at 70 g/ha ([2]; ZEAMX: maize, corn (Zea mays), application rate 70 g ai/ha, read-out: Visual Growth Reduction (%) 14 Days After Application, ZEAMX) of 0 to 29%. It also gave a pest or weed control at 140 g/ha ([2]; ZEAMX: maize, corn (Zea mays), application rate 140 g ai/ha, read-out: Visual Growth Reduction (%) 14 Days After Application, ZEAMX) of 0 to 29%.

Work on Nc1c(F)c(-c2ccc(Br)cc2F)nc(C(=O)O)c1Cl [Compound 163] yielded a melting point of 162 to 164 °C, a pest or weed control at 70 g/ha [1, 3] of 85 to 94% and a pest or weed control at 140 g/ha [1, 3] of 85 to 94%. For the same molecule, the pest or weed control at 70 g/ha [1, 4] was 95 to 100%, the pest or weed control at 140 g/ha [1, 4] was 95 to 100% and the pest or weed control at 70 g/ha [1, 5] was 95 to 100%. The pest or weed control at 140 g/ha [1, 5] was 95 to 100%, the pest or weed control at 70 g/ha [1, 6] was 95 to 100% and the pest or weed control at 140 g/ha [1, 6] was 95 to 100%. For the same molecule, the pest or weed control at 70 g/ha [1, 7] was 95 to 100%, the pest or weed control at 140 g/ha [1, 7] was 95 to 100% and the pest or weed control at 70 g/ha [1, 8] was 95 to 100%. The pest or weed control at 140 g/ha [1, 8] was 95 to 100%, the pest or weed control at 70 g/ha [1, 9] was 95 to 100% and the pest or weed control at 140 g/ha [1, 9] was 95 to 100%. For the same molecule, the pest or weed control at 70 g/ha ([2]; CYPES: yellow nutsedge (Cyperus esculentus), 70 g ai/ha, read-out: Visual Growth Reduction (%) 14 Days After Application, CYPES) was 95 to 100%, the pest or weed control at 140 g/ha ([2]; CYPES: yellow nutsedge (Cyperus esculentus), 140 g ai/ha, read-out: Visual Growth Reduction (%) 14 Days After Application, CYPES) was 95 to 100% and the pest or weed control at 70 g/ha ([2]; DIGSA: crabgrass (Digitaria sanguinalis), 70 g ai/ha, read-out: Visual Growth Reduction (%) 14 Days After Application, DIGSA) was 75 to 84%. For the same molecule, the pest or weed control at 140 g/ha ([2]; DIGSA: crabgrass (Digitaria sanguinalis), 140 g ai/ha, read-out: Visual Growth Reduction (%) 14 Days After Application, DIGSA) was 85 to 94%, the pest or weed control at 70 g/ha ([2]; ECHCG: barnyardgrass (Echinochloa crus-galli), 70 g ai/ha, read-out: Visual Growth Reduction (%) 14 Days After Application, ECHCG) was 85 to 94% and the pest or weed control at 140 g/ha ([2]; ECHCG: barnyardgrass (Echinochloa crus-galli), 140 g ai/ha, read-out: Visual Growth Reduction (%) 14 Days After Application, ECHCG) was 85 to 94%. The pest or weed control at 70 g/ha ([2]; ORYSA: rice (Oryza sativa), crop, 70 g ai/ha, read-out: Visual Growth Reduction (%) 14 Days After Application, ORYSA) was 0 to 29%, the pest or weed control at 140 g/ha ([2]; ORYSA: rice (Oryza sativa), crop, 140 g ai/ha, read-out: Visual Growth Reduction (%) 14 Days After Application, ORYSA) was 0 to 29% and the pest or weed control at 70 g/ha ([2]; SETFA: giant foxtail (Setaria faberi), 70 g ai/ha, read-out: Visual Growth Reduction (%) 14 Days After Application, SETFA) was 85 to 94%. The pest or weed control at 140 g/ha ([2]; SETFA: giant foxtail (Setaria faberi), 140 g ai/ha, read-out: Visual Growth Reduction (%) 14 Days After Application, SETFA) was 95 to 100%, the pest or weed control at 70 g/ha ([2]; SORVU: grain sorghum (Sorghum vulgare), 70 g ai/ha, read-out: Visual Growth Reduction (%) 14 Days After Application, SORVU) was 85 to 94% and the pest or weed control at 140 g/ha ([2]; SORVU: grain sorghum (Sorghum vulgare), 140 g ai/ha, read-out: Visual Growth Reduction (%) 14 Days After Application, SORVU) was 85 to 94%. For the same molecule, the pest or weed control at 70 g/ha ([2]; TRZSS (wheat, Triticum aestivum), crop, 70 g ai/ha, read-out: Visual Growth Reduction (%) 14 Days After Application, TRZSS) was 60 to 74%, the pest or weed control at 140 g/ha ([2]; TRZSS (wheat, Triticum aestivum), crop, 140 g ai/ha, read-out: Visual Growth Reduction (%) 14 Days After Application, TRZSS) was 60 to 74% and the pest or weed control at 70 g/ha ([2]; ZEAMX: maize, corn (Zea mays), crop, 70 g ai/ha, read-out: Visual Growth Reduction (%) 14 Days After Application, ZEAMX) was 45 to 59%. It also gave a pest or weed control at 140 g/ha ([2]; ZEAMX: maize, corn (Zea mays), crop, 140 g ai/ha, read-out: Visual Growth Reduction (%) 14 Days After Application, ZEAMX) of 60 to 74%.
